The source of these data is ChEMBL document CHEMBL1201862, “PubChem BioAssay data set” (2004).

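Interpolation was linear, between the two tested concentrations surrounding the appropriate level; five concentrations were tested over 48 hours in 96-well plates. GI50 = concentration required for 50% inhibition of growth.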 Calls of active or inactive are those of the source. No stated cut-off is given here; in the data, active = GI50 up to about 1.1 µM and inactive = higher.

What all share (test): inhibition of tumour cell growth, NCI panel, 48 h
The subject of experiment [1] is HL-60.
Experiment [2] deals with HCT-15.
Experiment [3] relates to SW-620.
Experiment [4] deals with MDA-MB-435.
The subject of experiment [5] is SK-OV-3.
The subject of experiment [6] is Malme-3M.
In experiment [7] the test system is EKVX.
The subject of experiment [8] is LOX IMVI.
The subject of experiment [9] is A549.
Experiment [10] relates to OVCAR-3.
The subject of experiment [11] is ACHN.
Experiment [12] relates to SN12C.
Experiment [13] relates to UACC-62.
In experiment [14] the test system is NCI/ADR-RES.
Experiment [15] deals with MDA-MB-231.
Experiment [16] concerns SR.
In experiment [17] the test system is UACC-257.
The subject of experiment [18] is HT-29.
In experiment [19] the test system is MCF7.
Experiment [20] deals with HCT-116.

As to `CC1=C2C(=O)c3ccccc3C(=O)[C@H]2C[C@@H](N2CCCCCC2=O)O1`, the GI50 in experiment [1] is 19 µM (inactive); in experiment [2] it was 20.7 µM; in experiment [3], 17.3 µM (inactive); in [4] it was 16 µM (inactive); in [5], 27.5 µM (inactive); in experiment [6], 12.9 µM (inactive). Moreover, the GI50 in experiment [7] is 23.1 µM (inactive); in experiment [8], 17.3 µM (inactive); in experiment [9] it was 20.3 µM (inactive); in experiment [10], 18 µM (inactive); in [11], 23.4 µM (inactive); in experiment [12], 17.7 µM (inactive). The GI50 was 19.2 µM (inactive) in experiment [13]; 22.3 µM (inactive) in [14]; 22.5 µM (inactive) in experiment [15]; 6.92 µM (inactive) in experiment [16]; 17.4 µM (inactive) in experiment [17]; 27 µM (inactive) in experiment [18].
With `CCOC(=O)c1[nH]cc(C)c1-c1cccn1-c1ccc(Cl)cc1[N+](=O)[O-]`, the GI50 was 32.1 µM in [2]; 23.1 µM (inactive) in [3]; 19.6 µM (inactive) in [4]; 30.7 µM (inactive) in experiment [19]; 20.6 µM (inactive) in experiment [7]; 17.5 µM (inactive) in experiment [8]. In addition, the GI50 in [9] was 23 µM (inactive); in [10], 12 µM (inactive); in experiment [11], 23.9 µM (inactive); in experiment [12], 24.7 µM (inactive); in experiment [13], 18.2 µM (inactive); in experiment [14], 17.5 µM (inactive). Moreover, the GI50 in experiment [15] is 8.24 µM (inactive); in [17], 20.1 µM (inactive); in experiment [20], 16.7 µM (inactive); in experiment [18], 16.2 µM (inactive).
On to `CN1Cc2cc3cc4c(cc3nc2N(C)C1)OCCO4`, for which the GI50 in experiment [2] is greater than 100 µM; in experiment [3], > 100 µM (inactive); in experiment [4] it was > 100 µM (inactive); in [5], > 100 µM (inactive); in [6] it was > 100 µM (inactive); in experiment [19], > 100 µM (inactive). Further, the GI50 in experiment [7], in experiment [8], in [9], in experiment [11], in [12] and in [13] was > 100 µM (inactive) each time. In addition, the GI50 in experiment [14], in experiment [15], in experiment [17], in experiment [20] and in experiment [18] was > 100 µM (inactive) in each case.
As for `CCCCCCCCCCCCCCCC(=O)OCC1CCCN2CCCCC12` (configuration not stated), the GI50 in experiment [1] is > 100 µM (inactive); in [2], greater than 100 µM; in experiment [3], > 100 µM (inactive); in experiment [4] it was > 100 µM (inactive); in experiment [5], > 100 µM (inactive); in experiment [6], > 100 µM (inactive). In addition, the GI50 in experiment [19], in [7], in experiment [8], in [9], in experiment [10] and in [11] was > 100 µM (inactive) each time. For the same compound, the GI50 in experiment [12], in [13], in experiment [14], in [15], in experiment [17] and in [20] was > 100 µM (inactive) throughout. In [18], the GI50 is > 100 µM (inactive).
As for `S=C(N/N=C\C=N/NC(=S)N1CCCCC1)N1CCCCC1`, the GI50 in experiment [2] was 0.0802 µM; in experiment [3], 0.0977 µM (active); in [4], 1.01 µM (active); in experiment [5], 0.692 µM (active); in experiment [6], 0.321 µM (active); in experiment [19], 0.466 µM (active). Besides, the GI50 is 0.515 µM (active) in experiment [7]; 0.32 µM (active) in [8]; 0.107 µM (active) in [9]; 0.251 µM (active) in [10]; 0.267 µM (active) in experiment [11]; 0.723 µM (active) in experiment [12]. The GI50 in experiment [13] was 0.594 µM (active); in experiment [14] it was 0.267 µM (active); in experiment [15], > 96.2 µM (inactive); in experiment [17], 1.25 µM (inactive); in [20] it was 0.124 µM (active); in experiment [18], 0.163 µM (active).
In the case of `CC1C2(C)OC(=N)C(C#N)(C(c3ccco3)O2)C1(C#N)C#N` (configuration not stated), the GI50 is 18.8 µM (inactive) in experiment [1]; 12.5 µM in [2]; 16.4 µM (inactive) in [3]; > 100 µM (inactive) in experiment [5]; 31.2 µM (inactive) in experiment [6]; 22.4 µM (inactive) in [19]. In addition, the GI50 is 34 µM (inactive) in [7]; 19.2 µM (inactive) in experiment [8]; > 100 µM (inactive) in experiment [9]; 21.3 µM (inactive) in [10]; 36.6 µM (inactive) in experiment [11]; 16.7 µM (inactive) in experiment [12]. Also, the GI50 in experiment [13] was 17.7 µM (inactive); in experiment [14] it was > 100 µM (inactive); in experiment [15] it was 19.1 µM (inactive); in [17] it was 20.5 µM (inactive); in experiment [20], 26.7 µM (inactive); in [18], 32.8 µM (inactive).
Regarding `COc1cccc(Nc2nc(C)c([N+](=O)[O-])c(Nc3cccc(OC)c3)n2)c1`, the GI50 in [1] was 11.2 µM (inactive); in [2], 18.4 µM; in [3], > 100 µM (inactive); in experiment [5], > 100 µM (inactive); in experiment [6], 53.1 µM (inactive); in experiment [19], 2.24 µM (inactive). Also, the GI50 was 6.35 µM (inactive) in [7]; 16.1 µM (inactive) in experiment [8]; 12.1 µM (inactive) in [9]; 12.9 µM (inactive) in experiment [10]; 19.4 µM (inactive) in experiment [11]; 54.3 µM (inactive) in [12]. In addition, the GI50 in [13] was 5.75 µM (inactive); in [14] it was 2.92 µM (inactive); in experiment [15], 49.7 µM (inactive); in experiment [16], 7.76 µM (inactive); in experiment [17] it was 9.57 µM (inactive); in [20] it was 26.6 µM (inactive). The GI50 in [18] is 12.6 µM (inactive).
`COc1cc(/C=C2\CC3C4CC[C@H]5C[C@@H](O)CC[C@]5(C)C4CC[C@]3(C)C2=O)cc(OC)c1OC` (some centres not stated): the GI50 in experiment [1] was 5.75 µM (inactive); in experiment [2], 9.59 µM; in [3], 24.8 µM (inactive); in experiment [4], 13.5 µM (inactive); in [5] it was 11.5 µM (inactive); in experiment [6] it was 19.5 µM (inactive). In addition, the GI50 in [19] is 4.25 µM (inactive); in [7] it was 12 µM (inactive); in [8], 12.6 µM (inactive); in experiment [9], 7.18 µM (inactive); in experiment [11], 11.8 µM (inactive); in experiment [12], 15.2 µM (inactive). The GI50 was 17.6 µM (inactive) in experiment [13]; 16.7 µM (inactive) in [14]; 22.1 µM (inactive) in experiment [15]; 21.8 µM (inactive) in experiment [17]; 7.19 µM (inactive) in [20]; 9.44 µM (inactive) in experiment [18].
Turning to `O=C(O)C(Cc1ccccc1)N1C(=O)c2ccccc2C1=O` (configuration not stated), the GI50 in [1] is 0.0472 µM (active); in experiment [2], greater than 100 µM; in experiment [3], 18.7 µM (inactive); in experiment [4], > 100 µM (inactive); in [5], > 100 µM (inactive); in [6], > 100 µM (inactive). The GI50 in [19] was > 100 µM (inactive); in [7] it was 93.1 µM (inactive); in experiment [8] it was > 100 µM (inactive); in experiment [9], > 100 µM (inactive); in experiment [10] it was > 100 µM (inactive); in [11], > 100 µM (inactive). For the same compound, the GI50 in [12], in [13], in experiment [14], in [15], in experiment [17] and in experiment [20] was > 100 µM (inactive) each time. Further, the GI50 in experiment [18] was > 100 µM (inactive).
In the case of `O=S(=O)(c1ccccc1)c1ccc(/N=N/O)nc1`, the GI50 was > 10 µM (inactive) in [1]; greater than 100 µM in [2]; > 100 µM (inactive) in experiment [3]; > 100 µM (inactive) in [5]; > 100 µM (inactive) in experiment [6]; 76 µM (inactive) in experiment [19]. Besides, the GI50 in experiment [7], in experiment [9], in experiment [10], in experiment [11], in experiment [12] and in experiment [13] was > 100 µM (inactive) in each case. In addition, the GI50 in experiment [14], in [15], in experiment [16], in experiment [17], in [20] and in [18] was > 100 µM (inactive) throughout.
Consider `COc1ccccc1-c1nc(-c2ccccc2O)n[nH]1`, for which the GI50 in experiment [1] was > 100 µM (inactive); in experiment [2] it was 45.9 µM; in [3] it was > 100 µM (inactive); in experiment [4] it was > 100 µM (inactive); in experiment [5], > 100 µM (inactive); in [19] it was > 100 µM (inactive). The GI50 in [8] was 71.1 µM (inactive); in experiment [9] it was > 100 µM (inactive); in [10] it was > 100 µM (inactive); in experiment [11], > 100 µM (inactive); in experiment [12], > 100 µM (inactive); in experiment [13], > 100 µM (inactive). Besides, the GI50 in [14], in experiment [15], in experiment [17], in experiment [20] and in experiment [18] was > 100 µM (inactive) throughout.
